Reference: ChEMBL document CHEMBL4507302, “Data for DCP probe TP-020” (2021)

How the values were obtained:
[1] = system: Tyrosine-protein kinase ABL1 (Homo sapiens), P00519 [H396P]; conditions: Compound concentration 1000.0 nM
[2] = system: Tyrosine-protein kinase ABL1 (Homo sapiens), P00519 [T315I]; conditions: Compound concentration 1000.0 nM
[3] = molecular target: Tyrosine-protein kinase ABL2 (Homo sapiens) (UniProt P42684); conditions: Compound concentration 1000.0 nM
[4] = molecular target: Atypical kinase COQ8A, mitochondrial (Homo sapiens) (UniProt Q8NI60); conditions: Compound concentration 1000.0 nM
[5] = molecular target: Atypical kinase COQ8B, mitochondrial (Homo sapiens) (UniProt Q96D53); conditions: Compound concentration 1000.0 nM
[6] = system: ALK tyrosine kinase receptor (Homo sapiens), Q9UM73 [C1156Y]; conditions: Compound concentration 1000.0 nM
[7] = molecular target: 5'-AMP-activated protein kinase catalytic subunit alpha-2 (Homo sapiens) (UniProt P54646); conditions: Compound concentration 1000.0 nM
[8] = molecular target: NUAK family SNF1-like kinase 1 (Homo sapiens) (UniProt O60285); conditions: Compound concentration 1000.0 nM
[9] = molecular target: Bone morphogenetic protein receptor type-2 (Homo sapiens) (UniProt Q13873); conditions: Compound concentration 1000.0 nM
[10] = molecular target: Calcium/calmodulin-dependent protein kinase type 1B (Homo sapiens) (UniProt Q6P2M8); conditions: Compound concentration 1000.0 nM
[11] = molecular target: Cyclin-dependent kinase 4 (Homo sapiens) (UniProt P11802); conditions: Compound concentration 1000.0 nM
[12] = molecular target: Citron Rho-interacting kinase (Homo sapiens) (UniProt O14578); conditions: Compound concentration 1000.0 nM
[13] = molecular target: Dual specificity protein kinase CLK2 (Homo sapiens) (UniProt P49760); conditions: Compound concentration 1000.0 nM
[14] = molecular target: Tyrosine-protein kinase CSK (Homo sapiens) (UniProt P41240); conditions: Compound concentration 1000.0 nM
[15] = molecular target: Casein kinase I isoform gamma-1 (Homo sapiens) (UniProt Q9HCP0); conditions: Compound concentration 1000.0 nM
[16] = system: Epidermal growth factor receptor (Homo sapiens), P00533 [UNDEFINED MUTATION]; conditions: Compound concentration 1000.0 nM
[17] = molecular target: Ephrin type-B receptor 3 (Homo sapiens) (UniProt P54753); conditions: Compound concentration 1000.0 nM
[18] = molecular target: Tyrosine-protein kinase Fes/Fps (Homo sapiens) (UniProt P07332); conditions: Compound concentration 1000.0 nM
[19] = molecular target: Receptor-type tyrosine-protein kinase FLT3 (Homo sapiens) (UniProt P36888); conditions: Compound concentration 1000.0 nM
[20] = molecular target: Vascular endothelial growth factor receptor 3 (Homo sapiens) (UniProt P35916); conditions: Compound concentration 1000.0 nM
[21] = molecular target: Homeodomain-interacting protein kinase 3 (Homo sapiens) (UniProt Q9H422); conditions: Compound concentration 1000.0 nM
[22] = molecular target: Inhibitor of nuclear factor kappa-B kinase subunit epsilon (Homo sapiens) (UniProt Q14164); conditions: Compound concentration 1000.0 nM
[23] = system: Hepatocyte growth factor receptor (Homo sapiens), P08581 [Y1235D]; conditions: Compound concentration 1000.0 nM
[24] = molecular target: Serine/threonine-protein kinase 24 (Homo sapiens) (UniProt Q9Y6E0); conditions: Compound concentration 1000.0 nM
[25] = molecular target: Muscle, skeletal receptor tyrosine-protein kinase (Homo sapiens) (UniProt O15146); conditions: Compound concentration 1000.0 nM
[26] = molecular target: Mitogen-activated protein kinase kinase kinase 14 (Homo sapiens) (UniProt Q99558); conditions: Compound concentration 1000.0 nM
[27] = molecular target: Cyclin-dependent kinase 16 (Homo sapiens) (UniProt Q00536); conditions: Compound concentration 1000.0 nM
[28] = system: Phosphatidylinositol 4,5-bisphosphate 3-kinase catalytic subunit alpha isoform (Homo sapiens), P42336 [M1043I]; conditions: Compound concentration 1000.0 nM
[29] = molecular target: Phosphatidylinositol 4,5-bisphosphate 3-kinase catalytic subunit delta isoform (Homo sapiens) (UniProt O00329); conditions: Compound concentration 1000.0 nM
[30] = molecular target: Phosphatidylinositol 4-phosphate 5-kinase type-1 gamma (Homo sapiens) (UniProt O60331); conditions: Compound concentration 1000.0 nM
[31] = molecular target: Phosphatidylinositol 5-phosphate 4-kinase type-2 beta (Homo sapiens) (UniProt P78356); conditions: Compound concentration 1000.0 nM
[32] = molecular target: Interferon-induced, double-stranded RNA-activated protein kinase (Homo sapiens) (UniProt P19525); conditions: Compound concentration 1000.0 nM
[33] = molecular target: Rho-associated protein kinase 2 (Homo sapiens) (UniProt O75116); conditions: Compound concentration 1000.0 nM
[34] = molecular target: Uncharacterized serine/threonine-protein kinase SBK3 (Homo sapiens) (UniProt P0C264); conditions: Compound concentration 1000.0 nM
[35] = molecular target: Serine/threonine-protein kinase Sgk2 (Homo sapiens) (UniProt Q9HBY8); conditions: Compound concentration 1000.0 nM
[36] = molecular target: Serine/threonine-protein kinase TAO1 (Homo sapiens) (UniProt Q7L7X3); conditions: Compound concentration 1000.0 nM
[37] = molecular target: Serine/threonine-protein kinase TAO2 (Homo sapiens) (UniProt Q9UL54); conditions: Compound concentration 1000.0 nM
[38] = molecular target: Serine/threonine-protein kinase TAO3 (Homo sapiens) (UniProt Q9H2K8); conditions: Compound concentration 1000.0 nM
[39] = molecular target: Dual specificity testis-specific protein kinase 1 (Homo sapiens) (UniProt Q15569); conditions: Compound concentration 1000.0 nM
[40] = molecular target: Serine/threonine-protein kinase 25 (Homo sapiens) (UniProt O00506); conditions: Compound concentration 1000.0 nM
[41] = molecular target: 5-hydroxytryptamine receptor 2A (Homo sapiens) (UniProt P28223); conditions: Compound concentration 10.0 uM
[42] = molecular target: 5-hydroxytryptamine receptor 3A (Homo sapiens) (UniProt P46098); conditions: Compound concentration 10.0 uM
[43] = molecular target: Histamine H1 receptor (Homo sapiens) (UniProt P35367); conditions: Compound concentration 10.0 uM
[44] = molecular target: Beta-2 adrenergic receptor (Homo sapiens) (UniProt P07550); conditions: Compound concentration 10.0 uM
[45] = molecular target: Alpha-1D adrenergic receptor (Homo sapiens) (UniProt P25100); conditions: Compound concentration 10.0 uM

NUAK family SNF1-like kinase 1 (Homo sapiens), sequence (O60285 whole entry): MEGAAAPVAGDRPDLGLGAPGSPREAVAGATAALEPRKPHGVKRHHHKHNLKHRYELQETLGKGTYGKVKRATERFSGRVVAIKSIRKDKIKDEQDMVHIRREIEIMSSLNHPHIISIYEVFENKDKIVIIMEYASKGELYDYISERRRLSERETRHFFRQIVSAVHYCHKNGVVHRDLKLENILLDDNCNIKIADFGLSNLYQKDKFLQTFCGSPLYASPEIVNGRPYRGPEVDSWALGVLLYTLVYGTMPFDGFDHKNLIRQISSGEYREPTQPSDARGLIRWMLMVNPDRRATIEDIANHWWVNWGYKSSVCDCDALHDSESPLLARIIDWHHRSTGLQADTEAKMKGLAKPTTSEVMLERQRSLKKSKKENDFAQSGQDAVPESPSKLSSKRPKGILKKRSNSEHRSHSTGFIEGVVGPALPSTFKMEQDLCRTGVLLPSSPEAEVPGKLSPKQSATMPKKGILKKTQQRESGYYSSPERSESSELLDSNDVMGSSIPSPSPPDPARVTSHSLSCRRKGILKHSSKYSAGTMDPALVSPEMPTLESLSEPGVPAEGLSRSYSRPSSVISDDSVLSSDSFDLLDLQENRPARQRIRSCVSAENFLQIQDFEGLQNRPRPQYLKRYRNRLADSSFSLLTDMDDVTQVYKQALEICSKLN
ALK tyrosine kinase receptor (Homo sapiens), Q9UM73 [C1156Y], sequence (Q9UM73 whole entry C1156Y, looked up): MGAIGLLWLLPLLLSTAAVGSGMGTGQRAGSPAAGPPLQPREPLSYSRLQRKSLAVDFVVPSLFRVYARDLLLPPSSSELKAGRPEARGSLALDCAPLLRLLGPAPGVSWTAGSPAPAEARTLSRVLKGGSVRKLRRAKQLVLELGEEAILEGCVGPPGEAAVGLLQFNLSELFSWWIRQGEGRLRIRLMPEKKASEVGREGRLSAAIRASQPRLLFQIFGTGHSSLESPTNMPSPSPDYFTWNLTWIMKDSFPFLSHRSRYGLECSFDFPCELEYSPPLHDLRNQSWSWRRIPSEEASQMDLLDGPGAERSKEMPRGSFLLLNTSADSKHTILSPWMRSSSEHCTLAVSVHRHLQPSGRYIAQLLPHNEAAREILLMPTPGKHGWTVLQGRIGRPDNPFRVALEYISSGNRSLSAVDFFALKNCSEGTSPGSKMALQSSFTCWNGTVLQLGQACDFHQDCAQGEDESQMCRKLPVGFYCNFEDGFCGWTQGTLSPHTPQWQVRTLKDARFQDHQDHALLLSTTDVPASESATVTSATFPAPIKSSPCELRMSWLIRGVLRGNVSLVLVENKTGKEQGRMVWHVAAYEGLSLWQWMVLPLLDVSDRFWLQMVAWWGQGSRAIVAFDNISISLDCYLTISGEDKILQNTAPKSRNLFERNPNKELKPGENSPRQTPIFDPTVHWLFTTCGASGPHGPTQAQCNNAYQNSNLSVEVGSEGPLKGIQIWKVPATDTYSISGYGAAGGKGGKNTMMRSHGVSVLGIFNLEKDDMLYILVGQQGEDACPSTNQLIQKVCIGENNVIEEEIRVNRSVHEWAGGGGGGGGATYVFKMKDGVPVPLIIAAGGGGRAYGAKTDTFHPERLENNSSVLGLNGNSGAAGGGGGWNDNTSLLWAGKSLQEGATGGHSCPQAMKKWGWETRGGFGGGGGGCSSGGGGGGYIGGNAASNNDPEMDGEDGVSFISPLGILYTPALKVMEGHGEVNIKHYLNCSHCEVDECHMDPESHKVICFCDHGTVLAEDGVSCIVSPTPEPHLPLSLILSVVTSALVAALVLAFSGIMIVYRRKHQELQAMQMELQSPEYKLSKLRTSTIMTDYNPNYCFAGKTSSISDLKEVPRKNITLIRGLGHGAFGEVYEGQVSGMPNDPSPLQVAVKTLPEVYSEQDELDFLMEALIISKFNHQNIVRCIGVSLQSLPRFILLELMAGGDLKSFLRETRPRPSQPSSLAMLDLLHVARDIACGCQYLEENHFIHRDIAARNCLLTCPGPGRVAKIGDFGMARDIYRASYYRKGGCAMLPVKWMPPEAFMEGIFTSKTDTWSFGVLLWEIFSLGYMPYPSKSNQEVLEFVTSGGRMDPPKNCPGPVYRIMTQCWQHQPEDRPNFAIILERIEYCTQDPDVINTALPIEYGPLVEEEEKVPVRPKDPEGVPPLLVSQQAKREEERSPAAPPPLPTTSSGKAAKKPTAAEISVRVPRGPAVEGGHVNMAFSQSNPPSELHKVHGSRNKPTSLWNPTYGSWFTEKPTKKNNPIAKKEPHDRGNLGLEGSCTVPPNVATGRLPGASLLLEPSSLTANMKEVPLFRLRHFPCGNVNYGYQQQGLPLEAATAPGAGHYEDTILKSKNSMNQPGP
Bone morphogenetic protein receptor type-2 (Homo sapiens), sequence (Q13873 whole entry): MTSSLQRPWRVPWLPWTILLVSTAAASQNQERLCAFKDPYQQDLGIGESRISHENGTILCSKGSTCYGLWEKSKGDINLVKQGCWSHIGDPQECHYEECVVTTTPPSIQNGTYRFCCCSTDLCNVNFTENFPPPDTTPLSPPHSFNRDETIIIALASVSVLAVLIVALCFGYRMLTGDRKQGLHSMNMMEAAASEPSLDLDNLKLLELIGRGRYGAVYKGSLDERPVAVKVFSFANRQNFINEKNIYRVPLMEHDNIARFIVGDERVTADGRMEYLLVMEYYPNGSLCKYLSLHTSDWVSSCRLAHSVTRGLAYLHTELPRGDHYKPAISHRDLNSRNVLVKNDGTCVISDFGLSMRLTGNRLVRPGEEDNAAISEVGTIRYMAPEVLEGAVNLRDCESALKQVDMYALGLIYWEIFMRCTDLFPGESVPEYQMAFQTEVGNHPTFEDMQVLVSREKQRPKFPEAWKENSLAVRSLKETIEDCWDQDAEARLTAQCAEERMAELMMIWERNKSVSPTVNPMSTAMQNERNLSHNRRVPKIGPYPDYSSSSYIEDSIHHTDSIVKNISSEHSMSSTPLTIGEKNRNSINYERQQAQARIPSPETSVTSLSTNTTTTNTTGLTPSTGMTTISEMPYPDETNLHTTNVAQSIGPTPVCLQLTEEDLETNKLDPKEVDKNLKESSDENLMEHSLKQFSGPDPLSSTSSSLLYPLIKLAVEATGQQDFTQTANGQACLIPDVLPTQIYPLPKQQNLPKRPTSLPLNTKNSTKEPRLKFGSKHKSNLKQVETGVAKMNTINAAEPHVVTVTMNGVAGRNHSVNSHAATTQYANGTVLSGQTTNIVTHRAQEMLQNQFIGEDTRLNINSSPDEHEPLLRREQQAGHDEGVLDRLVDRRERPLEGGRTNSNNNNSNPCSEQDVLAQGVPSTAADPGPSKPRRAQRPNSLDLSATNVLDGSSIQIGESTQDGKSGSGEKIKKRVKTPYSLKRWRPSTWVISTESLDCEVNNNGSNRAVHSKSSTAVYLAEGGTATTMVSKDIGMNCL
Tyrosine-protein kinase ABL2 (Homo sapiens), sequence (P42684 whole entry): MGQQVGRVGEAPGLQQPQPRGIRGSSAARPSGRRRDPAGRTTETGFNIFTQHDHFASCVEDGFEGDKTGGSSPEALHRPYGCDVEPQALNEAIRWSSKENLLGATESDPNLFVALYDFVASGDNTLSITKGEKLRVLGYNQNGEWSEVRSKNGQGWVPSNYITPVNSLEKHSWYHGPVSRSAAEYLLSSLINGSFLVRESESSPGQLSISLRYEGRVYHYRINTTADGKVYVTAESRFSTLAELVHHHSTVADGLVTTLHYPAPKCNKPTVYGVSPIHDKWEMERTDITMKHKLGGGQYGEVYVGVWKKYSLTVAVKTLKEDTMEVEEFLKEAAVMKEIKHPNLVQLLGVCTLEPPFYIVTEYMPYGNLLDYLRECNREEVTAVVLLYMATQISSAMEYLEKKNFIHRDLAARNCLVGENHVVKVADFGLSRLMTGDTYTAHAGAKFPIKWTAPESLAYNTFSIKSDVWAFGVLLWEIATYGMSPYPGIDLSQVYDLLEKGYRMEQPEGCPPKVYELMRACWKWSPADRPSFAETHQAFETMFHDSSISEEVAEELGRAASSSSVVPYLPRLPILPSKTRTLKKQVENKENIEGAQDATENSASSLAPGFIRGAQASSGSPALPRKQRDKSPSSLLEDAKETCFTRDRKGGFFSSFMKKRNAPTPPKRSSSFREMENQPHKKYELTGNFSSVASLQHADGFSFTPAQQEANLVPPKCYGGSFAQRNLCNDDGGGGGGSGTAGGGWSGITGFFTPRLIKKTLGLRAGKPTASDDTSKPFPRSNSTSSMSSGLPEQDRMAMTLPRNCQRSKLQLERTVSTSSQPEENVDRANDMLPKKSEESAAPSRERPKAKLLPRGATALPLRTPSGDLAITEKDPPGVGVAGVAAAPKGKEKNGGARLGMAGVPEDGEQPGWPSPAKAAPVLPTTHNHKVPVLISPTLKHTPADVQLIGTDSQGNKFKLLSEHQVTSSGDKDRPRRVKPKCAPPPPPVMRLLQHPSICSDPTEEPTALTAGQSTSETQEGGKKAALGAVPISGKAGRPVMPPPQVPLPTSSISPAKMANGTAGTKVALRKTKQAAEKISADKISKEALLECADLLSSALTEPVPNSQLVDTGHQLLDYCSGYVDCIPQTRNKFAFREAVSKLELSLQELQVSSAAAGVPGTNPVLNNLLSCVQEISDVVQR
Calcium/calmodulin-dependent protein kinase type 1B (Homo sapiens), sequence (Q6P2M8 whole entry): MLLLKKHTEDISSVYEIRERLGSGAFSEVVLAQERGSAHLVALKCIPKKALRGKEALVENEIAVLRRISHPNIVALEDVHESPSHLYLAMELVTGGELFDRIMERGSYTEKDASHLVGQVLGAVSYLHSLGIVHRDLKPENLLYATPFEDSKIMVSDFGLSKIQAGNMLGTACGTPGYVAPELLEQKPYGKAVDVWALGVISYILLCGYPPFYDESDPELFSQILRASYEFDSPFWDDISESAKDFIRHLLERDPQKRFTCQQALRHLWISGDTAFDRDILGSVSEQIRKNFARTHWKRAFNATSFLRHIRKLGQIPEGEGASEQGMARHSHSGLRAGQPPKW

Compound: Nc1cnc(N2CCc3cc(S(=O)(=O)Nc4c(F)cc(Cl)cc4F)cc(N4CCCC4=O)c32)nc1
- residual activity [1]: 94%
- residual activity [2]: 98%
- residual activity [3]: 95%
- residual activity [4]: 100%
- residual activity [5]: 100%
- residual activity [6]: 100%
- residual activity [7]: 100%
- residual activity [8]: 100%
- residual activity [9]: 100%
- residual activity [10]: 67%
- residual activity [11]: 97%
- residual activity [12]: 91%
- residual activity [13]: 100%
- residual activity [14]: 99%
- residual activity [15]: 97%
- residual activity [16]: 71%
- residual activity [17]: 100%
- residual activity [18]: 100%
- residual activity [19]: 81%
- residual activity [20]: 86%
- residual activity [21]: 100%
- residual activity [22]: 95%
- residual activity [23]: 69%
- residual activity [24]: 100%
- residual activity [25]: 100%
- residual activity [26]: 75%
- residual activity [27]: 98%
- residual activity [28]: 100%
- residual activity [29]: 88%
- residual activity [30]: 75%
- residual activity [31]: 100%
- residual activity [32]: 41%
- residual activity [33]: 100%
- residual activity [34]: 100%
- residual activity [35]: 76%
- residual activity [36]: 80%
- residual activity [37]: 78%
- residual activity [38]: 70%
- residual activity [39]: 100%
- residual activity [40]: 88%
- inhibition [41]: -2.82%
- inhibition [42]: 0.32%
- inhibition [43]: -2.69%
- inhibition [44]: -3.08%
- inhibition [45]: -2.31%

Compound: Cn1nc(C(F)(F)F)cc1-c1cnc(N2CCc3cc(S(=O)(=O)Nc4c(F)cc(Cl)cc4F)cc(N4CCCC4=O)c32)nc1 [TP-020]
- residual activity [1]: 81%
- residual activity [2]: 82%
- residual activity [3]: 100%
- residual activity [4]: 100%
- residual activity [5]: 100%
- residual activity [6]: 72%
- residual activity [7]: 97%
- residual activity [8]: 89%
- residual activity [9]: 77%
- residual activity [10]: 80%
- residual activity [11]: 68%
- residual activity [12]: 100%
- residual activity [13]: 86%
- residual activity [14]: 93%
- residual activity [15]: 100%
- residual activity [16]: 100%
- residual activity [17]: 95%
- residual activity [18]: 100%
- residual activity [19]: 85%
- residual activity [20]: 96%
- residual activity [21]: 85%
- residual activity [22]: 94%
- residual activity [23]: 94%
- residual activity [24]: 90%
- residual activity [25]: 87%
- residual activity [26]: 79%
- residual activity [27]: 77%
- residual activity [28]: 89%
- residual activity [29]: 84%
- residual activity [30]: 93%
- residual activity [31]: 100%
- residual activity [32]: 100%
- residual activity [33]: 85%
- residual activity [34]: 79%
- residual activity [35]: 100%
- residual activity [36]: 99%
- residual activity [37]: 100%
- residual activity [38]: 93%
- residual activity [39]: 86%
- residual activity [40]: 100%
- inhibition [41]: 8.54%
- inhibition [42]: 7.45%
- inhibition [43]: 10.2%
- inhibition [44]: 17.4%
- inhibition [45]: -4.04%
